Like-named read-outs stand apart in the source and are kept apart here.
Molecular target: T7 RNA polymerase (Escherichia phage T7, UniProt P00573)
Conditions: for Composition of nucleotide incorporated as 5′ neighbor of A: Cp / Composition of nucleotide incorporated as 5′ neighbor of A: Up / Composition of nucleotide incorporated as 5′ neighbor of A: Ap / Composition of nucleotide incorporated as 5′ neighbor of A: Np (Pa′p) / Composition of nucleotide incorporated as 5′ neighbor of A: Gp: [α-32P]ATP; for Composition of nucleotide incorporated as 5′ neighbor of U: Np (Pa′p) / Composition of nucleotide incorporated as 5′ neighbor of U: Ap / Composition of nucleotide incorporated as 5′ neighbor of U: Gp / Composition of nucleotide incorporated as 5′ neighbor of U: Up / Composition of nucleotide incorporated as 5′ neighbor of U: Cp: [α-32P]UTP
[1] = Entry 7, template temp35Ds-3, natural NTP 1 mM, Pa′ 1 mM, theoretical [0]
[2] = Entry 7, template temp35Ds-3, natural NTP 1 mM, Pa′ 1 mM, theoretical [1]
[3] = Entry 8, template temp35Ds-3, natural NTP 1 mM, Pa′ 3 mM, theoretical [0]
[4] = Entry 8, template temp35Ds-3, natural NTP 1 mM, Pa′ 3 mM, theoretical [1]
[5] = Entry 9, template temp35A-3, natural NTP 1 mM, Pa′ 1 mM, theoretical [0]
[6] = Entry 9, template temp35A-3, natural NTP 1 mM, Pa′ 1 mM, theoretical [1]
[7] = Entry 10, template temp35A-3, natural NTP 1 mM, Pa′ 3 mM, theoretical [0]
[8] = Entry 10, template temp35A-3, natural NTP 1 mM, Pa′ 3 mM, theoretical [1]
[9] = Entry 11, template temp35G-3, natural NTP 1 mM, Pa′ 1 mM, theoretical [0]
[10] = Entry 11, template temp35G-3, natural NTP 1 mM, Pa′ 1 mM, theoretical [1]
[11] = Entry 12, template temp35G-3, natural NTP 1 mM, Pa′ 3 mM, theoretical [0]
[12] = Entry 12, template temp35G-3, natural NTP 1 mM, Pa′ 3 mM, theoretical [1]
[13] = Entry 25, template DNA12, natural NTP 3 mM, Pa′ 3 mM, theoretical [6]
[14] = Entry 27, template DNAcont4, natural NTP 3 mM, Pa′ 3 mM, theoretical [6]
[15] = Entry 32, template DNA11, natural NTP 3 mM, Pa′ 3 mM, theoretical [4]
[16] = Entry 33, template DNA12, natural NTP 3 mM, Pa′ 3 mM, theoretical [4]
[17] = Entry 35, template DNAcont4, natural NTP 3 mM, Pa′ 3 mM, theoretical [4]

T7 RNA polymerase, sequence (P00573 whole entry): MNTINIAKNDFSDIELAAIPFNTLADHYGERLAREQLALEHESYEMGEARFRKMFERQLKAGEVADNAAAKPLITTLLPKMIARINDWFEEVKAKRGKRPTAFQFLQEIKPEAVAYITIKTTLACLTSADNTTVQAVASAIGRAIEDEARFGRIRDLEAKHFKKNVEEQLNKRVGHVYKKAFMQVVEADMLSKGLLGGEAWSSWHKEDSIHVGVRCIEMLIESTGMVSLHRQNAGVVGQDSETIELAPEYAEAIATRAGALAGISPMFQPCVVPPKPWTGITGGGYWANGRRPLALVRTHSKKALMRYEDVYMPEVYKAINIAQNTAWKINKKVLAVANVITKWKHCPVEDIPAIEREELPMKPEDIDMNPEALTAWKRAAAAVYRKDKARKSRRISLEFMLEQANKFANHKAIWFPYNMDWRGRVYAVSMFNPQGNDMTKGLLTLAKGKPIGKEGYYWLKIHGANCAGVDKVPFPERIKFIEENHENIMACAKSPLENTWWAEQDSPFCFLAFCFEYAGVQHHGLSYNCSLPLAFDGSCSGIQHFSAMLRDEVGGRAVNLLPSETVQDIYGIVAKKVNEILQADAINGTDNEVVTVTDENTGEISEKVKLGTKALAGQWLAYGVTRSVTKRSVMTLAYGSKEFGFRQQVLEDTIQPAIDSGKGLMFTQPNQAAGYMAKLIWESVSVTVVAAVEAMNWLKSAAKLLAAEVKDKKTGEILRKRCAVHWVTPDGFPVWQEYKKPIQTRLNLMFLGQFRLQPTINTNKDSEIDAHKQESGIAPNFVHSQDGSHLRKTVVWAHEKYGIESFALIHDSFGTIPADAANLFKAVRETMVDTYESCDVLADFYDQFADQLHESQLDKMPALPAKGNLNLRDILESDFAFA
Procedure: Transcription (20 μl) was accomplished in 40 mM Tris-HCl buffer (pH 8.0) containing 24 mM MgCl2, 2 mM spermidine, 5 mM DTT, 0.01% Triton X-100, 1-3 mM each natural NTP, 0-3 mM Pa′TP, 0-3 mM DsTP, 10 mM GMP, 2 μM template DNA (for 17-mer transcript synthesis) or 0.5 μM template DNA (for tRNA transcript synthesis), and 2.5 units/μl T7 RNA polymerase (TAKARA). […] For nucleotide composition analysis in transcripts (Non-patent Documents 17 and 33), the transcripts were internally labeled with 2 μCi [α-^32P]UTP or [α-^32P]ATP (Amersham). After the transcription, the products were digested with 0.75 units of RNase T2 at 37° C. for 2 hours in 10 μl of 15 mM sodium acetate buffer (pH 4.5). For 17-mer analysis, 0.05 A260 units of E. coli tRNA (Sigma) was added to the digestion reaction solution. The digestion products were analyzed by 2D-TLC (HPTLC plate, 100×100 mm, Merck). The developing solvents used for the first and second dimensions were isobutyric acid-ammonia-water (66:1:33 v/v/v) and isopropyl alcohol-HCl-water (70:15:15 v/v/v or 75:15:10 v/v/v for Pa′ transcripts), respectively. Spots of the labeled nucleotides on the TLC plate were analyzed with a bio-imaging analyzer.
The internally ^32P-labeled transcripts were digested with Rnase T2, and the resulting labeled nucleoside 3′-monophosphates were analyzed by 2D thin-layer chromatography (2D-TLC).

## CC#Cc1cc(C=O)n([C@@H]2O[C@H](COP(=O)(O)OP(=O)(O)OP(=O)(O)O)[C@@H](O)[C@H]2O)c1 [Pa′TP, 4-Propynyl-1-(β-D-ribofuranosyl)pyrrole-2-carbaldehyde 5′-triphosphate]
[1]
  Composition of nucleotide incorporated as 5′ neighbor of A: Cp: 0.01 [0]
  Composition of nucleotide incorporated as 5′ neighbor of A: Up: 0.02 [0]
[2]
  Composition of nucleotide incorporated as 5′ neighbor of A: Ap: 1.03 [1]
  Composition of nucleotide incorporated as 5′ neighbor of A: Np (Pa′p): 0.95 [1]
Entry 7, template temp35Ds-3, natural NTP 1 mM, Pa′ 1 mM, theoretical [2]
  Composition of nucleotide incorporated as 5′ neighbor of A: Gp: 2.00 [2]
[3]
  Composition of nucleotide incorporated as 5′ neighbor of A: Cp: 0.01 [0]
  Composition of nucleotide incorporated as 5′ neighbor of A: Up: 0.02 [0]
[4]
  Composition of nucleotide incorporated as 5′ neighbor of A: Ap: 1.01 [1]
  Composition of nucleotide incorporated as 5′ neighbor of A: Np (Pa′p): 0.97 [1]
Entry 8, template temp35Ds-3, natural NTP 1 mM, Pa′ 3 mM, theoretical [2]
  Composition of nucleotide incorporated as 5′ neighbor of A: Gp: 1.99 [2]
[5]
  Composition of nucleotide incorporated as 5′ neighbor of A: Cp: n.d. [0]
  Composition of nucleotide incorporated as 5′ neighbor of A: Np (Pa′p): n.d. [0]
[6]
  Composition of nucleotide incorporated as 5′ neighbor of A: Ap: 0.99 [1]
  Composition of nucleotide incorporated as 5′ neighbor of A: Up: 1.03 [1]
Entry 9, template temp35A-3, natural NTP 1 mM, Pa′ 1 mM, theoretical [2]
  Composition of nucleotide incorporated as 5′ neighbor of A: Gp: 1.98 [2]
[7]
  Composition of nucleotide incorporated as 5′ neighbor of A: Cp: 0.01 [0]
  Composition of nucleotide incorporated as 5′ neighbor of A: Np (Pa′p): n.d. [0]
[8]
  Composition of nucleotide incorporated as 5′ neighbor of A: Ap: 0.99 [1]
  Composition of nucleotide incorporated as 5′ neighbor of A: Up: 1.00 [1]
Entry 10, template temp35A-3, natural NTP 1 mM, Pa′ 3 mM, theoretical [2]
  Composition of nucleotide incorporated as 5′ neighbor of A: Gp: 1.99 [2]
[9]
  Composition of nucleotide incorporated as 5′ neighbor of A: Np (Pa′p): n.d. [0]
  Composition of nucleotide incorporated as 5′ neighbor of A: Up: 0.01 [0]
[10]
  Composition of nucleotide incorporated as 5′ neighbor of A: Ap: 1.01 [1]
  Composition of nucleotide incorporated as 5′ neighbor of A: Cp: 1.00 [1]
Entry 11, template temp35G-3, natural NTP 1 mM, Pa′ 1 mM, theoretical [2]
  Composition of nucleotide incorporated as 5′ neighbor of A: Gp: 1.98 [2]
[11]
  Composition of nucleotide incorporated as 5′ neighbor of A: Np (Pa′p): n.d. [0]
  Composition of nucleotide incorporated as 5′ neighbor of A: Up: 0.01 [0]
[12]
  Composition of nucleotide incorporated as 5′ neighbor of A: Ap: 1.00 [1]
  Composition of nucleotide incorporated as 5′ neighbor of A: Cp: 1.01 [1]
Entry 12, template temp35G-3, natural NTP 1 mM, Pa′ 3 mM, theoretical [2]
  Composition of nucleotide incorporated as 5′ neighbor of A: Gp: 1.98 [2]
Entry 24, template DNA11, natural NTP 3 mM, Pa′ 3 mM, theoretical [0]
  Composition of nucleotide incorporated as 5′ neighbor of A: Up: 0.09 [0]
Entry 24, template DNA11, natural NTP 3 mM, Pa′ 3 mM, theoretical [1]
  Composition of nucleotide incorporated as 5′ neighbor of A: Np (Pa′p): 0.97 [1]
Entry 24, template DNA11, natural NTP 3 mM, Pa′ 3 mM, theoretical [5]
  Composition of nucleotide incorporated as 5′ neighbor of A: Ap: 5.08 [5]
Entry 24, template DNA11, natural NTP 3 mM, Pa′ 3 mM, theoretical [6]
  Composition of nucleotide incorporated as 5′ neighbor of A: Gp: 5.98 [6]
Entry 24, template DNA11, natural NTP 3 mM, Pa′ 3 mM, theoretical [7]
  Composition of nucleotide incorporated as 5′ neighbor of A: Cp: 6.88 [7]
Entry 25, template DNA12, natural NTP 3 mM, Pa′ 3 mM, theoretical [0]
  Composition of nucleotide incorporated as 5′ neighbor of A: Up: 0.07 [0]
Entry 25, template DNA12, natural NTP 3 mM, Pa′ 3 mM, theoretical [1]
  Composition of nucleotide incorporated as 5′ neighbor of A: Np (Pa′p): 0.98 [1]
[13]
  Composition of nucleotide incorporated as 5′ neighbor of A: Ap: 6.05 [6]
  Composition of nucleotide incorporated as 5′ neighbor of A: Gp: 5.94 [6]
Entry 25, template DNA12, natural NTP 3 mM, Pa′ 3 mM, theoretical [7]
  Composition of nucleotide incorporated as 5′ neighbor of A: Cp: 6.96 [7]
Entry 27, template DNAcont4, natural NTP 3 mM, Pa′ 3 mM, theoretical [0]
  Composition of nucleotide incorporated as 5′ neighbor of A: Np (Pa′p): n.d. [0]
Entry 27, template DNAcont4, natural NTP 3 mM, Pa′ 3 mM, theoretical [1]
  Composition of nucleotide incorporated as 5′ neighbor of A: Up: 1.06 [1]
[14]
  Composition of nucleotide incorporated as 5′ neighbor of A: Ap: 6.04 [6]
  Composition of nucleotide incorporated as 5′ neighbor of A: Gp: 6.00 [6]
Entry 27, template DNAcont4, natural NTP 3 mM, Pa′ 3 mM, theoretical [7]
  Composition of nucleotide incorporated as 5′ neighbor of A: Cp: 6.90 [7]
Entry 32, template DNA11, natural NTP 3 mM, Pa′ 3 mM, theoretical [0]
  Composition of nucleotide incorporated as 5′ neighbor of U: Np (Pa′p): 0.01 [0]
Entry 32, template DNA11, natural NTP 3 mM, Pa′ 3 mM, theoretical [2]
  Composition of nucleotide incorporated as 5′ neighbor of U: Ap: 2.01 [2]
[15]
  Composition of nucleotide incorporated as 5′ neighbor of U: Gp: 3.98 [4]
  Composition of nucleotide incorporated as 5′ neighbor of U: Up: 4.00 [4]
Entry 32, template DNA11, natural NTP 3 mM, Pa′ 3 mM, theoretical [5]
  Composition of nucleotide incorporated as 5′ neighbor of U: Cp: 5.01 [5]
Entry 33, template DNA12, natural NTP 3 mM, Pa′ 3 mM, theoretical [0]
  Composition of nucleotide incorporated as 5′ neighbor of U: Np (Pa′p): 0.01 [0]
Entry 33, template DNA12, natural NTP 3 mM, Pa′ 3 mM, theoretical [2]
  Composition of nucleotide incorporated as 5′ neighbor of U: Ap: 2.00 [2]
[16]
  Composition of nucleotide incorporated as 5′ neighbor of U: Cp: 4.05 [4]
  Composition of nucleotide incorporated as 5′ neighbor of U: Gp: 3.94 [4]
  Composition of nucleotide incorporated as 5′ neighbor of U: Up: 4.01 [4]
Entry 35, template DNAcont4, natural NTP 3 mM, Pa′ 3 mM, theoretical [0]
  Composition of nucleotide incorporated as 5′ neighbor of U: Np (Pa′p): n.d. [0]
Entry 35, template DNAcont4, natural NTP 3 mM, Pa′ 3 mM, theoretical [2]
  Composition of nucleotide incorporated as 5′ neighbor of U: Ap: 2.02 [2]
[17]
  Composition of nucleotide incorporated as 5′ neighbor of U: Gp: 4.00 [4]
  Composition of nucleotide incorporated as 5′ neighbor of U: Up: 3.97 [4]
Entry 35, template DNAcont4, natural NTP 3 mM, Pa′ 3 mM, theoretical [5]
  Composition of nucleotide incorporated as 5′ neighbor of U: Cp: 5.01 [5]

— patent publication US8030478B2, “Method for nucleic acid replication and novel artificial base pairs” (priority 2005, dated 2011)
